According to article PMC7306766 (Proceedings of the National Academy of Sciences of the …, 2020):

Molecular target: T1, mouse HCN2 (Mus musculus, UniProt O88703)
T1 sequence (O88703 1-863): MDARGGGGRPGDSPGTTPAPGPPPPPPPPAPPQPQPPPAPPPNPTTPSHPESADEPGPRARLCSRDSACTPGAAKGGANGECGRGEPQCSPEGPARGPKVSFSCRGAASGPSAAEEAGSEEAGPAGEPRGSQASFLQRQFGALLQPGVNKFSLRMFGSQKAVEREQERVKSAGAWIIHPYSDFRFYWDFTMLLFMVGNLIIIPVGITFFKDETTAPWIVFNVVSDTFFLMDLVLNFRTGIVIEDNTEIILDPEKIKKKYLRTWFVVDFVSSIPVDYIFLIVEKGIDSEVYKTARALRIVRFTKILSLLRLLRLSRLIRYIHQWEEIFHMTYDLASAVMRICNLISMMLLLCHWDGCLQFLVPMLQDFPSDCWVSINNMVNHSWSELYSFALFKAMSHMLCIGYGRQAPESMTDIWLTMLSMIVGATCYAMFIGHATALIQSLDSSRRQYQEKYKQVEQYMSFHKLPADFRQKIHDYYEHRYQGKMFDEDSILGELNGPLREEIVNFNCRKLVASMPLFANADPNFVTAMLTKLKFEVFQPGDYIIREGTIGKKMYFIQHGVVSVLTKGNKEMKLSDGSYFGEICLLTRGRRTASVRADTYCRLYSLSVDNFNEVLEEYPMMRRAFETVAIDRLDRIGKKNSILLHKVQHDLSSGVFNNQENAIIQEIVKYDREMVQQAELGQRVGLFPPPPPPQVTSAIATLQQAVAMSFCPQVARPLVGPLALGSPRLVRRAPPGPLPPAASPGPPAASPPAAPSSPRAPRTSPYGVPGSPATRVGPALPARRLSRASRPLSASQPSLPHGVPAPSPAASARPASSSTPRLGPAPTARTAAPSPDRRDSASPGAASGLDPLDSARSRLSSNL
Experiment: patch clamp, excised inside-out patches from HEK cells
Type: biochemical
Conditions: open-channel pore blocker

For `CCN(c1ccccc1)c1cc(NC)[n+](C)c(C)n1` [ZD7288], the “% inhibition at 200 μM” value was “mean relative inhibition of zebrafish HCNL1 and mouse HCN2 in response to ZD7288”.
